According to paper PMC5218480 (PLoS ONE, 2017):

Tested on: MV-4-11 cells
Test: Gene expression microarray analysis (Affymetrix PrimeView) and GSEA
Format: cell-based, human
Parameters: RFU PODN (11730768_x_at) / Fold change /veh PODN (11730768_x_at) / RFU LINC00158 (11744669_a_at) / Fold change /veh LINC00158 (11744669_a_at) / RFU DUSP10 (11751237_a_at) / Fold change /veh DUSP10 (11751237_a_at) / RFU ID3 (11757404_x_at) / Fold change /veh ID3 (11757404_x_at) / RFU PLEKHG5 (11737974_s_at) / Fold change /veh PLEKHG5 (11737974_s_at) / RFU LRRC4B (11730491_at) / Fold change /veh LRRC4B (11730491_at) / RFU GIMAP4 (11747438_a_at) / Fold change /veh GIMAP4 (11747438_a_at) / RFU KRT8 (11758183_x_at) / Fold change /veh KRT8 (11758183_x_at) / RFU CNN1 (11734310_a_at) / Fold change /veh CNN1 (11734310_a_at) / RFU VPS37D (11726825_at) / Fold change /veh VPS37D (11726825_at) / RFU C10orf10 (11716522_x_at) / Fold change /veh C10orf10 (11716522_x_at) / RFU KIR2DL2 /// KIR2DL4 /// KIR2DL5A /// KIR2DL5B /// KIR2DS1 /// KIR2DS2 /// KIR2DS3 /// KIR2DS4 /// KIR3DL3 /// KIR3DL3 /// KIR3DS1 (11738374_at) / Fold change /veh KIR2DL2 /// KIR2DL4 /// KIR2DL5A /// KIR2DL5B /// KIR2DS1 /// KIR2DS2 /// KIR2DS3 /// KIR2DS4 /// KIR3DL3 /// KIR3DL3 /// KIR3DS1 (11738374_at) / RFU C1QL1 (11718748_at) / Fold change /veh C1QL1 (11718748_at) / RFU TMPRSS4 (11747572_a_at) / Fold change /veh TMPRSS4 (11747572_a_at) / RFU HAMP (11756126_x_at) / Fold change /veh HAMP (11756126_x_at) / RFU RNFT2 (11725882_a_at) / Fold change /veh RNFT2 (11725882_a_at) / RFU NR4A2 (11747474_a_at) / Fold change /veh NR4A2 (11747474_a_at) / RFU ABCC12 (11746883_a_at) / Fold change /veh ABCC12 (11746883_a_at) / RFU TMEM136 (11760407_x_at) / Fold change /veh TMEM136 (11760407_x_at) / RFU CLDN22 /// WWC2 (11732394_at) / Fold change /veh CLDN22 /// WWC2 (11732394_at) / RFU HLA-DPB1 (11760878_x_at) / Fold change /veh HLA-DPB1 (11760878_x_at) / RFU SPINT1 (11716480_a_at) / Fold change /veh SPINT1 (11716480_a_at) / RFU GAP43 (11754022_s_at) / Fold change /veh GAP43 (11754022_s_at) / RFU A4GNT (11735810_at) / Fold change /veh A4GNT (11735810_at) / RFU PRB3 (11715151_x_at) / Fold change /veh PRB3 (11715151_x_at) / RFU TUBB4B (11761932_at) / Fold change /veh TUBB4B (11761932_at) / RFU CAPN14 (11732068_a_at) / Fold change /veh CAPN14 (11732068_a_at) / RFU TMCC2 (11721928_a_at) / Fold change /veh TMCC2 (11721928_a_at) / RFU IRGQ (11745062_a_at) / Fold change /veh IRGQ (11745062_a_at) / RFU FAM174B (11720279_a_at) / Fold change /veh FAM174B (11720279_a_at) / RFU TMPRSS4 (11748680_a_at) / Fold change /veh TMPRSS4 (11748680_a_at) / RFU FAM212B (11763350_a_at) / Fold change /veh FAM212B (11763350_a_at) / RFU PLEKHG5 (11743358_a_at) / Fold change /veh PLEKHG5 (11743358_a_at) / RFU ZSCAN30 (11745921_a_at) / Fold change /veh ZSCAN30 (11745921_a_at) / RFU CMKLR1 (11741424_a_at) / Fold change /veh CMKLR1 (11741424_a_at) / RFU LOC101060620 /// MAPK8IP1 (11723275_at) / Fold change /veh LOC101060620 /// MAPK8IP1 (11723275_at) / RFU SPTSSB (11747773_x_at) / Fold change /veh SPTSSB (11747773_x_at) / RFU PRSS12 (11739890_at) / Fold change /veh PRSS12 (11739890_at) / RFU BIN1 (11741810_x_at) / Fold change /veh BIN1 (11741810_x_at) / RFU WNT11 (11732464_a_at) / Fold change /veh WNT11 (11732464_a_at) / RFU C10orf10 (11716521_a_at) / Fold change /veh C10orf10 (11716521_a_at) / RFU C5orf56 (11738089_at) / Fold change /veh C5orf56 (11738089_at) / RFU CYB561 (11721691_x_at) / Fold change /veh CYB561 (11721691_x_at) / RFU ANKRD19P (11752326_a_at) / Fold change /veh ANKRD19P (11752326_a_at) / RFU OR2T12 /// OR2T33 /// OR2T8 (11738714_s_at) / Fold change /veh OR2T12 /// OR2T33 /// OR2T8 (11738714_s_at) / RFU VCAN (11748164_a_at) / Fold change /veh VCAN (11748164_a_at) / RFU JSRP1 (11732532_at) / Fold change /veh JSRP1 (11732532_at) / RFU KRTAP10-11 (11738290_x_at) / Fold change /veh KRTAP10-11 (11738290_x_at) / RFU MYO3A (11730013_a_at) / Fold change /veh MYO3A (11730013_a_at) / RFU EBF3 (11725865_a_at) / Fold change /veh EBF3 (11725865_a_at) / RFU CAMK2N1 (11719241_x_at) / Fold change /veh CAMK2N1 (11719241_x_at) / RFU C5orf56 (11738088_a_at) / Fold change /veh C5orf56 (11738088_a_at) / RFU OLFML3 (11715873_a_at) / Fold change /veh OLFML3 (11715873_a_at) / RFU LOC100653217 /// NTM (11731650_a_at) / Fold change /veh LOC100653217 /// NTM (11731650_a_at) / RFU MAPK11 (11762145_a_at) / Fold change /veh MAPK11 (11762145_a_at) / RFU FIZ1 (11724087_x_at) / Fold change /veh FIZ1 (11724087_x_at) / RFU OASL (11726364_x_at) / Fold change /veh OASL (11726364_x_at) / RFU SOX15 (11748057_x_at) / Fold change /veh SOX15 (11748057_x_at) / RFU CD79A (11719716_a_at) / Fold change /veh CD79A (11719716_a_at) / RFU HIST1H1D (11736915_at) / Fold change /veh HIST1H1D (11736915_at) / RFU CASKIN2 (11723855_a_at) / Fold change /veh CASKIN2 (11723855_a_at) / RFU LOC730098 (11760151_x_at) / Fold change /veh LOC730098 (11760151_x_at) / RFU OR4N2 (11742367_at) / Fold change /veh OR4N2 (11742367_at) / RFU PRRT2 (11749266_a_at) / Fold change /veh PRRT2 (11749266_a_at) / RFU SNX32 (11753110_a_at) / Fold change /veh SNX32 (11753110_a_at) / RFU CDHR5 (11726645_a_at) / Fold change /veh CDHR5 (11726645_a_at) / RFU RCAN1 (11760418_a_at) / Fold change /veh RCAN1 (11760418_a_at) / RFU FAM167A (11723789_a_at) / Fold change /veh FAM167A (11723789_a_at) / RFU FAM26E (11764081_at) / Fold change /veh FAM26E (11764081_at) / RFU ISYNA1 (11749810_s_at) / Fold change /veh ISYNA1 (11749810_s_at) / RFU ACY1 (11761880_at) / Fold change /veh ACY1 (11761880_at) / RFU 11764098_at / Fold change /veh 11764098_at / RFU SAMD14 (11745864_x_at) / Fold change /veh SAMD14 (11745864_x_at) / RFU NPB (11741838_a_at) / Fold change /veh NPB (11741838_a_at) / RFU TMPRSS6 (11731388_a_at) / Fold change /veh TMPRSS6 (11731388_a_at) / RFU KRTAP10-2 (11738614_at) / Fold change /veh KRTAP10-2 (11738614_at) / RFU ARHGAP8 /// PRR5-ARHGAP8 (11727945_x_at) / Fold change /veh ARHGAP8 /// PRR5-ARHGAP8 (11727945_x_at) / RFU KRTAP5-7 /// NADSYN1 (11734609_at) / Fold change /veh KRTAP5-7 /// NADSYN1 (11734609_at) / RFU RASL12 (11751679_a_at) / Fold change /veh RASL12 (11751679_a_at) / RFU CDKN2B (11736163_a_at) / Fold change /veh CDKN2B (11736163_a_at) / RFU PRF1 (11729649_at) / Fold change /veh PRF1 (11729649_at) / RFU, ZNF638 /// ZNF638-IT1 / Fold change vs veh, ZNF638 /// ZNF638-IT1 / RFU, PANK3 / Fold change vs veh, PANK3 / RFU, SH3YL1 / Fold change vs veh, SH3YL1 / RFU, ZEB2 / Fold change vs veh, ZEB2 / RFU, NRIP1 / Fold change vs veh, NRIP1 / RFU, PTTG1IP / Fold change vs veh, PTTG1IP / RFU, CAPN2 / Fold change vs veh, CAPN2 / RFU, MED14 / Fold change vs veh, MED14 / RFU, SNORA58 / Fold change vs veh, SNORA58 / RFU, C1orf63 / Fold change vs veh, C1orf63 / RFU, LRRFIP1 / Fold change vs veh, LRRFIP1 / RFU, NDUFAF7 / Fold change vs veh, NDUFAF7 / RFU, SLC12A2 / Fold change vs veh, SLC12A2 / RFU, IBTK / Fold change vs veh, IBTK / RFU, ESF1 / Fold change vs veh, ESF1 / Fold change vs veh, TMEM50B / RFU, TAOK1 / Fold change vs veh, TAOK1 / RFU, ACBD3 / Fold change vs veh, ACBD3 / RFU, TMA16 / Fold change vs veh, TMA16 / RFU, RWDD3 / Fold change vs veh, RWDD3 / RFU, BCAT1 / Fold change vs veh, BCAT1 / RFU, EDEM3 / Fold change vs veh, EDEM3 / RFU, TMEM33 / Fold change vs veh, TMEM33 / RFU, WDR75 / Fold change vs veh, WDR75 / RFU, AHCTF1 / Fold change vs veh, AHCTF1 / RFU, TFRC / Fold change vs veh, TFRC / RFU, ZDHHC17 / Fold change vs veh, ZDHHC17 / RFU, NOM1 / Fold change vs veh, NOM1 / RFU, ARL8B / Fold change vs veh, ARL8B / RFU, ZBTB11 / Fold change vs veh, ZBTB11 / RFU, TAMM41 / Fold change vs veh, TAMM41 / RFU, KIAA1704 /// LOC100996395 / Fold change vs veh, KIAA1704 /// LOC100996395 / RFU, ING1 / Fold change vs veh, ING1 / RFU, TRMT61B / Fold change vs veh, TRMT61B / RFU, FUBP3 / Fold change vs veh, FUBP3 / RFU, TP53 / Fold change vs veh, TP53 / RFU, TNKS2 / Fold change vs veh, TNKS2 / RFU, ZFP14 / Fold change vs veh, ZFP14 / RFU, ACTR2 / Fold change vs veh, ACTR2 / RFU, PPP3R1 / Fold change vs veh, PPP3R1 / RFU, PIK3R1 / Fold change vs veh, PIK3R1 / RFU, HNRNPA1 / Fold change vs veh, HNRNPA1 / RFU, RNF170 / Fold change vs veh, RNF170 / RFU, ZNF28 / Fold change vs veh, ZNF28 / RFU, RNGTT / Fold change vs veh, RNGTT / RFU, OGT / Fold change vs veh, OGT / RFU, BRD1 / Fold change vs veh, BRD1 / RFU, MARS / Fold change vs veh, MARS / RFU, ZNF655 / Fold change vs veh, ZNF655 / RFU, FAHD1 / Fold change vs veh, FAHD1 / RFU, BDP1 / Fold change vs veh, BDP1 / RFU, LRRCC1 / Fold change vs veh, LRRCC1 / RFU, ARID1A / Fold change vs veh, ARID1A / RFU, ZNF146 / Fold change vs veh, ZNF146 / RFU, ZNF330 / Fold change vs veh, ZNF330 / RFU, GPN3 / Fold change vs veh, GPN3 / RFU, C9orf123 / Fold change vs veh, C9orf123 / RFU, N4BP2L2 / Fold change vs veh, N4BP2L2 / RFU, ARFIP1 / Fold change vs veh, ARFIP1 / RFU, FAM179B / Fold change vs veh, FAM179B / RFU, BCL10 / Fold change vs veh, BCL10 / RFU, UHRF1BP1L / Fold change vs veh, UHRF1BP1L / RFU, BET1 / Fold change vs veh, BET1 / RFU, CNOT2 / Fold change vs veh, CNOT2 / RFU, ZNF268 / Fold change vs veh, ZNF268 / Fold change vs veh, ZNF507 / RFU, DGCR2 / Fold change vs veh, DGCR2 / RFU, WDSUB1 / Fold change vs veh, WDSUB1 / Fold change vs veh, HSP90B1 /// MIR3652 / RFU, ADSS / Fold change vs veh, ADSS / RFU, GK / Fold change vs veh, GK / RFU, ZNF148 / Fold change vs veh, ZNF148 / RFU, TAF9 / Fold change vs veh, TAF9 / RFU, SLC1A5 / Fold change vs veh, SLC1A5 / RFU, SLMO2 / Fold change vs veh, SLMO2 / RFU, ABCC4 / Fold change vs veh, ABCC4 / RFU, LOC101060439 /// RAP1B / Fold change vs veh, LOC101060439 /// RAP1B / RFU, RFX7 / Fold change vs veh, RFX7 / RFU, GTPBP10 / Fold change vs veh, GTPBP10 / RFU, CNEP1R1 / Fold change vs veh, CNEP1R1 / RFU, BIVM-ERCC5 /// ERCC5 / Fold change vs veh, BIVM-ERCC5 /// ERCC5 / RFU, ILF3 / Fold change vs veh, ILF3 / RFU 11762660_at / Fold change /veh 11762660_at / RFU VCAN (11757783_s_at) / Fold change /veh VCAN (11757783_s_at) / RFU DDX43 (11728927_at) / Fold change /veh DDX43 (11728927_at) / RFU KRT8 (11758188_x_at) / Fold change /veh KRT8 (11758188_x_at) / RFU NKD1 (11759106_at) / Fold change /veh NKD1 (11759106_at) / RFU SRD5A1 (11742802_a_at) / Fold change /veh SRD5A1 (11742802_a_at) / RFU TPSAB1 /// TPSB2 (11721975_s_at) / Fold change /veh TPSAB1 /// TPSB2 (11721975_s_at) / RFU GSTM3 (11746129_a_at) / Fold change /veh GSTM3 (11746129_a_at) / RFU IL23R (11737362_x_at) / Fold change /veh IL23R (11737362_x_at) / RFU TMEM51 (11727254_a_at) / Fold change /veh TMEM51 (11727254_a_at) / RFU PIWIL2 (11732686_x_at) / Fold change /veh PIWIL2 (11732686_x_at) / RFU ORM1 (11744905_x_at) / Fold change /veh ORM1 (11744905_x_at) / RFU CCDC152 (11743942_at) / Fold change /veh CCDC152 (11743942_at) / RFU ECM1 (11717891_a_at) / Fold change /veh ECM1 (11717891_a_at) / RFU IL23R (11748794_a_at) / Fold change /veh IL23R (11748794_a_at) / RFU TNFAIP8L3 (11732012_x_at) / Fold change /veh TNFAIP8L3 (11732012_x_at) / RFU MBOAT4 (11741988_at) / Fold change /veh MBOAT4 (11741988_at) / RFU 11764193_at / Fold change /veh 11764193_at / RFU TMEM53 (11763286_at) / Fold change /veh TMEM53 (11763286_at) / RFU MAGEB2 (11727129_at) / Fold change /veh MAGEB2 (11727129_at) / RFU TMEM200A (11744735_a_at) / Fold change /veh TMEM200A (11744735_a_at) / RFU CCDC152 (11751479_a_at) / Fold change /veh CCDC152 (11751479_a_at) / RFU FAM211A (11726209_a_at) / Fold change /veh FAM211A (11726209_a_at) / RFU RGS16 (11746705_a_at) / Fold change /veh RGS16 (11746705_a_at) / RFU VCAN (11755009_s_at) / Fold change /veh VCAN (11755009_s_at) / RFU RHOB (11743442_s_at) / Fold change /veh RHOB (11743442_s_at) / RFU RGS16 (11720943_a_at) / Fold change /veh RGS16 (11720943_a_at) / RFU RGS16 (11720944_at) / Fold change /veh RGS16 (11720944_at) / RFU, VPS4B / Fold change vs veh, VPS4B / RFU, CREB1 / Fold change vs veh, CREB1 / RFU, DNAJC13 / Fold change vs veh, DNAJC13 / RFU, GNAQ / Fold change vs veh, GNAQ / RFU, CDK5R1 / Fold change vs veh, CDK5R1 / RFU, ZRANB3 / Fold change vs veh, ZRANB3 / RFU, CUL4A / Fold change vs veh, CUL4A / RFU, CCNY / Fold change vs veh, CCNY / RFU, UFL1 / Fold change vs veh, UFL1 / RFU, COG3 / Fold change vs veh, COG3 / RFU, DIAPH2 / Fold change vs veh, DIAPH2 / RFU, SKA2 / Fold change vs veh, SKA2 / RFU, AFF3 / Fold change vs veh, AFF3 / RFU, LMF1 / Fold change vs veh, LMF1 / RFU, IPO11 / Fold change vs veh, IPO11 / RFU, DFFB / Fold change vs veh, DFFB / RFU, FOXP1 / Fold change vs veh, FOXP1 / RFU, CARD8 / Fold change vs veh, CARD8 / RFU, STRN3 / Fold change vs veh, STRN3 / RFU, ADK / Fold change vs veh, ADK / RFU, RASSF2 / Fold change vs veh, RASSF2 / RFU, WIPF1 / Fold change vs veh, WIPF1 / RFU, LARP1B / Fold change vs veh, LARP1B / RFU, RASA1 / Fold change vs veh, RASA1 / RFU, RB1 / Fold change vs veh, RB1 / RFU, PPFIA1 / Fold change vs veh, PPFIA1 / RFU, MAT2A / Fold change vs veh, MAT2A / RFU, CCT5 / Fold change vs veh, CCT5 / RFU, WDR92 / Fold change vs veh, WDR92 / RFU, CUX1 / Fold change vs veh, CUX1 / RFU, TTC7A / Fold change vs veh, TTC7A / RFU, TMEM135 / Fold change vs veh, TMEM135 / RFU, DEPTOR / Fold change vs veh, DEPTOR / RFU, CPM / Fold change vs veh, CPM / RFU, DNAJB6 / Fold change vs veh, DNAJB6 / RFU, CACNA2D3 / Fold change vs veh, CACNA2D3 / RFU, DTX4 / Fold change vs veh, DTX4 / RFU, TFCP2 / Fold change vs veh, TFCP2 / RFU, GMCL1 /// GMCL1P1 / Fold change vs veh, GMCL1 /// GMCL1P1 / RFU, AEBP2 / Fold change vs veh, AEBP2 / RFU, SNHG1 /// SNORD22 /// SNORD25 /// SNORD26 /// SNORD27 /// SNORD28 /// SNORD29 /// SNORD31 / Fold change vs veh, SNHG1 /// SNORD22 /// SNORD25 /// SNORD26 /// SNORD27 /// SNORD28 /// SNORD29 /// SNORD31 / Fold change (Aza/veh), C12orf56 (ProbeSet 11735607_a_at) / Fold change (ACY-1035/veh), C12orf56 (ProbeSet 11735607_a_at) / Fold change (Aza/veh), FGFR1OP (ProbeSet 11751329_s_at) / Fold change (ACY-1035/veh), FGFR1OP (ProbeSet 11751329_s_at) / Fold change (Aza/veh), VPS36 (ProbeSet 11739960_a_at) / Fold change (ACY-1035/veh), VPS36 (ProbeSet 11739960_a_at) / RFU SYPL1 (11715823_x_at) / Fold change /veh SYPL1 (11715823_x_at) / RFU IGFBP7 (11715501_s_at) / Fold change /veh IGFBP7 (11715501_s_at) / RFU REEP3 (11722064_at) / Fold change /veh REEP3 (11722064_at) / RFU IGLL1 (11728026_x_at) / Fold change /veh IGLL1 (11728026_x_at): dose or concentration left out as unconfirmed
Details: ProbeSet 11725901_x_at; LIST B

## Nc1ccc(-c2cccs2)cc1NC(=O)c1ccc2c(c1)cc(C1CC1)n2CCN1CCOCC1 [ACY-1035]
  RFU, RWDD3: 19.72 RFU
